US8372869B2, “Process for the treatment of bacterial infections using 2-phenyl-1,2-benzisoselenazol-3(2H)-one 1-oxide” (priority 2008, dated 2013)
“Also recorded” adds a separate entry of the source.

Experiments:
[1] = tested on: Staphylococcus aureus strain, positive for catalase and coagulase (Gram-positive); assay: Bacterial growth inhibition by light-scattering at 550 nm, Staphylococcus aureus; assay type: cell-based; settings: read-out: IC50, concentration required to inhibit the growth of Staphylococcus aureus to 50% of the untreated control
Text: (§1) A Gram-negative Escherichia coli strain, DH5(alpha), was purchased from Invitrogen (Cat #18265-017; Carlsbad, Calif.) and a Gram-positive Staphylococcus aureus strain, positive for catalase and coagulase, was purchased from Ward's Natural Science (Cat #85V1178; Rochester, N.Y.). S. aureus strain ATCC 33592 is a clinical isolate which is resistant to methicillin and which was obtained from the American Type Culture Collection (Manassas, Va.). S. aureus strain NARSA VRS 1 is a clinical isolate which is resistant to both methicillin and vancomycin and which was obtained from Focus Technologies, Inc. (Herndon, Va.). These bacterial strains were used to test the antibacterial activity of ebselen se-oxide. To prepare ebselen se-oxide, an adequate amount of said compound was dissolved in 0.5 mL of dimethylsulfoxide (DMSO) to give a 30.0 mM stock solution.
(§2) Luria Broth (LB) was used to for the culturing of both bacterial strains. […]
(§3) Bacterial growth, in the absence or presence of ebselen se-oxide, was assessed by light-scattering at 550 nm. In separate experiments, bacterial cells of either the Staphylococcus aureus or the Escherichia coli strain were inoculated into polypropylene tubes containing 5 mL of LB medium to obtain an initial optical density at 550 nm (OD550) of ˜0.005, as determined using a spectrophotometer (UV 160U, Shimadzu Corp., Kyoto, Japan). […]

[2] = tested on: Escherichia coli strain DH5(alpha) (Gram-negative); assay: Bacterial growth inhibition by light-scattering at 550 nm, Escherichia coli; assay type: cell-based; settings: read-out: IC50 towards Escherichia coli cells (growth inhibition)
Text: as §1, §2, §3

[3] = tested on: S. aureus strain ATCC 33592 (resistant to methicillin); assay: Broth microdilution susceptibility testing, methicillin-resistant S. aureus; assay type: cell-based, Staphylococcus aureus; settings: strain ATCC 33592, Mueller Hinton Broth, 24 (±4) hr, 35-37° C., 3.125-25 μM tested
Text: as §1
(§4) Note that all susceptibility assays were performed in triplicate wells using sterile flat-bottom 96-well microtiter plates. […] After 24 (±4) hr of incubation at 35-37° C., the MIC (minimum inhibitory concentration) for ebselen se-oxide was determined for each strain visually by comparing the turbidity of the triplicate treatments to that observed for drug-free growth control wells. […]

[4] = tested on: S. aureus strain NARSA VRS1 (resistant to both methicillin and vancomycin); assay: Broth microdilution susceptibility testing, methicillin- and vancomycin-resistant S. aureus; assay type: cell-based, Staphylococcus aureus; settings: strain NARSA VRS1, Mueller Hinton Broth, 24 (±4) hr, 35-37° C., 3.125-25 μM tested
Text: as §1, §4

A-431 human skin cells = assay: MTT viability assay in human skin cells; assay type: cell-based; settings: 12.5, 25 or 50 μM, 24 hr, 37° C., serum-free DMEM
Procedure: Cells were then incubated for 24 hr at 37° C. After incubation, the MTT viability assay was performed. This assay measures the conversion of 3-[4,5-dimethylthiazol-2-yl]-2,5-diphenyl tetrazolium bromide (MTT) into a colored product in living cells. The optical density of this purple formazan product in the cell culture medium was then measured spectrophotometrically at 570 nm and cell viability was determined as described by Mosmann (15).
The MTT assay was used to determine cell viability and the LC50 value for ebselen se-oxide in these cells was evaluated.

SMILES	IC50 [1] [µM]	IC50 [2] [µM]	MIC (lowest concentration showing 100% growth inhibition in all three wells) [3]	MIC (lowest concentration showing 100% growth inhibition in all three wells) [4]	Cytotoxic effect on viability of A-431 human skin cells (MTT) (A-431 human skin cells)
O=C1c2ccccc2[Se](=O)N1c1ccccc1 (stereo not drawn) [ebselen se-oxide, 2-phenyl-1,2-benzisoselenazol-3(2H)-one 1-oxide]	~0.6	~17	low micromolar range	low micromolar range	neither compound was toxic; also recorded: no toxicity
O=c1c2ccccc2[se]n1-c1ccccc1 [ebselen, 2-phenyl-1,2-benzoisoselenazol-3(2H)-one, reference compound]	–	–	–	–	neither compound was toxic
